Key:
C57 mice [1] = experiment: forced swimming test in mice; type: in vivo; settings: 3 mg/kg p.o.; for immobility time during minutes 2-6, Mean value: one hour after the administration
Text: (§1) The core manifestations of depression are despair, helplessness, and anhedonia. The forced swimming test is commonly used to evaluate despair-like behavior. In this test, the animal is placed in an unpleasant and inescapable environment (a water tank). […] Anhedonia means a loss of interest in things that were once pleasurable; in rodents, it is typically manifested as a reduced preference for sweet foods (sucrose). Therefore, the in vivo efficacy of the compounds of the examples of the present disclosure in mice can be evaluated by forced swimming and sucrose preference tests.
(§2) Female/male C57 mice, purchased from SPF (Suzhou) Biotechnology Co., Ltd.
(§3) Note: ①Vehicle: 5% of DMSO + 5% of HS-15 + 90% of 20% hydroxypropyl-β-cyclodextrin (10 mL/kg, p.o.).
Forced swimming: Animals were divided into a control group and various test drug administration dose groups, which were subjected to vehicle and test drug administration, respectively. One hour after the administration, the animals were placed in a 25 °C plexiglass cylinder with a water depth of 20 cm. The swimming status of the animals in the water was recorded by video, and the immobility time of the animals (characterized by floating in the water and stopping struggling) during minutes 2-6 was recorded and analyzed.
(§4) Experimental data were expressed as χ ± SEM. One-way analysis of variance was employed, and pairwise comparisons were performed using Dunnett's multiple comparisons tests. The floating immobility time, swimming time, and struggling time were recorded.

[2] = acute toxicity experiment and side effect observation in mice; type: in vivo, ICR mice; settings: both sexes, ICR, mouse, in vivo; single oral intragastric administration at 2.5, 5, 10, 20 mg/kg; 14 days observation; read-out: maximum tolerated dose (MTD)
Experimental: (§5) This experiment aimed to evaluate the acute toxic manifestations of the test compounds following single oral intragastric administration in ICR mice, observe the recovery status of the ICR mice within 14 days post-administration, and determine the maximum tolerated dose of the test compounds.
(§6) 65 male and 65 female ICR mice were purchased from Shanghai Jihui Laboratory Animal Care Co., Ltd. After 4-5 days of acclimatization of the experimental animals, the formal experiment was carried out. The mice were housed at 5 mice/cage in a 12/12-hour light/dark cycle at a room temperature of 23±2 °C, with free access to food and water.
(§7) Based on the Vehicle in section 2.4, a certain weight of the test compound was weighed, 5% of the total volume of a DMSO liquid was first added, and the mixture was vortexed. After the drug was completely dissolved, 5% of the total volume of an HS-15 liquid was added, and the mixture was well mixed and vortexed. Finally, a 20% hydroxypropyl-β-cyclodextrin solution was added according to the remaining volume proportion, forming a 2 mg/mL clear and homogeneous solution. The solution was then proportionally diluted in a gradient to concentrations of 1 mg/mL, 0.5 mg/mL, and 0.25 mg/mL (the administration volume was 10 mL/kg).
(§8) • a. About 12-18 h before testing, animals were weighed and then grouped, and fasted overnight (water was accessible). • b. The next day, the mice were reweighed according to groups. Ten mice per group (5 males and 5 females/dose) were subjected to oral intragastric administration of the test compound or Vehicle. The day of administration was designated as Day 1. • c. […] Observation period for Day 2 to Day 14: 9:00 to 12:00.
(§9) • (1) The clinical symptoms and mortality in each group of ICR mice post-administration were recorded to determine the maximum tolerated dose. • (2) The symptom alleviation and recovery status in each group of ICR mice post-administration were recorded.

ICR mice = experiment: as above; type: in vivo; settings: for clinical symptoms / death: 4-8 h post-administration; for cage-side observations / main adverse reactions / tolerability: single oral administration, 2.5 to 20 mg/kg
Experimental: as §5, §6, §7, §8, §9

C57 mice [3] = experiment: sucrose preference test in mice; type: in vivo; settings: 3 mg/kg p.o.; for Sucrose preference degree, Mean value: mice with chronic stress, 2 h free drinking
Text: as §1, §2, §3
Sugar preference: D1: a 1% sucrose solution was provided on both sides; D2/3: drinking water was provided on one side, while a 1% sucrose solution was provided on the other side; D4: water and food were deprived; D5: sucrose preference degree was tested. During the test, the mice with chronic stress were subjected to administration according to the experimental groups. After the administration, pre-weighed sucrose solution and drinking water were provided on […]. The animals were allowed free access to drinking for 2 h in a dark environment, and during this period, the positions of the sucrose solution and drinking water were switched at the 1-hour mark.
as §4
Sucrose preference degree (%) = sucrose solution consumption/(sucrose solution consumption + purified water consumption) × 100%.

[4] = all dose groups (2.5/5/10/20 mg/kg)

| SMILES | immobility time during minutes 2-6, Mean value (C57 mice [1]) | effect on immobility time compared to the blank group (C57 mice [1]; conclusion in words) | MTD at 14 days [2] | clinical symptoms (ICR mice; 20 mpk group) | death (ICR mice; [4]) | clinical symptoms (ICR mice; all lower dose groups (below 20 mpk)) | cage-side observations / main adverse reactions (ICR mice) | tolerability (ICR mice) | Sucrose preference degree, Mean value (C57 mice [3]) | effect on sucrose preference degree compared to the blank group (C57 mice [3]; conclusion in words) | mortality (ICR mice; 20 mg/kg group, single oral intragastric administration) | death (ICR mice; 20 mpk group, 5 males and 5 females) |
| --- | --- | --- | --- | --- | --- | --- | --- | --- | --- | --- | --- | --- |
| C[C@@H]1C[C@H](C(=O)Cn2ncnn2)[C@@]2(C)CC[C@H]3[C@@H](CC[C@@H]4C[C@](C)(O)[C@@H](C)C[C@@H]43)[C@H]12 [Example 9, 1-((2S,3S,5R,8R,9R,10S,13S,14S,15R,17S)-3-Hydroxy-2,3,13,15-tetramethylhexadecahydro-1H-cyclopenta[a]phenanthren-17-yl)-2-(2H-tetrazol-2-yl)ethan-1-one] | 54.68 s | significantly reduce the immobility time | 20 mg/kg | gait instability | no death occurred | returned to normal | prostration and mild loss of righting reflex observed in some of the mice at high doses | all animals could tolerate it | 88.37% | significantly improve the sucrose preference degree |  |  |
| C[C@H]1C[C@H]2[C@H](CC[C@@H]3[C@@H]2CC[C@]2(C)[C@@H](C(=O)Cn4ncnn4)CC[C@@H]32)C[C@]1(C)O [Example 20, 1-((2S,3S,5R,8R,9R,10S,13S,14S,17S)-3-Hydroxy-2,3,13-trimethylhexadecahydro-1H-cyclopenta[a]phenanthren-17-yl)-2-(2H-tetrazol-2-yl)ethan-1-one] |  |  | 20 mg/kg |  | no death occurred |  | ataxia that aggravated with the increase of dose | all animals could tolerate it |  |  |  |  |
| C[C@@]1(O)CC[C@H]2[C@H](CC[C@@H]3[C@@H]2CC[C@]2(C)[C@@H](C(=O)Cn4cc(C#N)cn4)CC[C@@H]32)C1 [Sage-217, reference compound] | 56.38 s |  | 10 mg/kg | prostration symptoms |  |  | ataxia that aggravated with the increase of dose, as well as severe loss of righting reflex observed at high doses |  | 84.31% |  | mortality was observed in both male and female mice | 1 male and 2 female mice died |
